Measurements reported in ChEMBL document CHEMBL5214990, “Novel Aryl Alkamidazole Derivatives as Multifunctional Antifungal Inhibitors: Design, Synthesis, and Biological Evaluation” (J Med Chem, 2022).
Activity calls are given as the source filed them. No cut-off for these calls is given here.

Experiments:
[1] = tested on: Mus musculus; test: Immunomodulatory activity in mouse infected with Candida albicans assessed as increase in expression intensity of CD3+ T cells in spleen at 20 mg/kg, ip administered on days 2,4,6,8,10,12 and measured on day 14 by immunohistochemical staining analysis relative to control; type: functional, T-cell; conditions: time 13 day
[2] = tested on: Mus musculus; test: Immunomodulatory activity in mouse infected with Candida albicans assessed as increase in expression intensity of CD8+ T cells in spleen at 20 mg/kg, ip administered on days 2,4,6,8,10,12 and measured on day 14 by immunohistochemical staining analysis relative to control; type: functional, T-cell; conditions: time 13 day
[3] = tested on: Mus musculus; test: Immunomodulatory activity in mouse infected with Candida albicans assessed as increase in expression intensity of CD3+ T cells in spleen at 20 mg/kg, ip administered on days 2,4,6,8,10,12 and measured on day 14 by immunohistochemical staining analysis relative to fluconazole; type: functional, T-cell; conditions: time 13 day
[4] = tested on: Candida albicans; test: Induction of morphological changes in Candida albicans ATCC SC5314 assessed as reduction in fungal cell thickness measured after 48 to 72 hrs by transmission electron microscopy; type: functional, organism-based; conditions: time 48-72 hrs
[5] = tested on: Candida albicans; test: Induction of morphological changes in Candida albicans ATCC SC5314 assessed as rupturing of marginal regions measured after 96 hrs by transmission electron microscopy; type: functional, organism-based
[6] = tested on: Candida albicans; test: Induction of morphological changes in Candida albicans ATCC SC5314 assessed as fungal cells with irregular shrunken characteristics measured after 48 to 72 hrs by transmission electron microscopy; type: functional, organism-based; conditions: time 48-72 hrs
[7] = tested on: Candida albicans; test: Induction of morphological changes in Candida albicans ATCC SC5314 assessed as disintegration of fungal cell membrane and cell wall measured after 96 hrs by transmission electron microscopy; type: functional, organism-based
[8] = tested on: Candida albicans; test: Induction of morphological changes in Candida albicans ATCC SC5314 assessed as fungal cells with edema, cavitation, nuclear enrichment, accumulation of low density granular materials measured after 48 to 72 hrs by transmission electron microscopy; type: functional, organism-based; conditions: time 48-72 hrs
[9] = tested on: Candida albicans; test: Induction of morphological changes in Candida albicans ATCC SC5314 assessed as exudation of fungal cell contents to the external region measured after 96 hrs by transmission electron microscopy; type: functional, organism-based
[10] = tested on: Cryptococcus neoformans; test: Increase in intracellular ROS level in Cryptococcus neoformans assessed as fold increase in fluorescence intensity measured after 12 hrs by fluorescence microscopic analysis relative to control; type: functional
[11] = tested on: Candida albicans; test: Increase in intracellular ROS level in Candida albicans assessed as fold increase in fluorescence intensity measured after 12 hrs by fluorescence microscopic analysis relative to control; type: functional

SMILES | fold change (FC) [1] | fold change (FC) [2] | fold change (FC) [3] | Activity [4] | Activity [5] | Activity [6] | Activity [7] | Activity [8] | Activity [9] | Activity [10] | Activity [11]
C[C@H](C(=O)N(C)CC(O)(Cn1ccnc1)c1ccc(Cl)cc1)c1ccc(-c2ccccc2)c(F)c1 (some centres undefined) | 2.12 | 2.12 | 2.12 | – | – | – | – | – | – | – | –
C[C@H](C(=O)N(C)CC(O)(Cn1ccnc1)c1ccc(Cl)cc1Cl)c1cccc(C(=O)c2ccccc2)c1 (some centres undefined) | 2.12 | 2.12 | 2.12 | Active | Active | Active | Active | Active | Active | – | –
OC(Cn1cncn1)(Cn1cncn1)c1ccc(F)cc1F [FLUCONAZOLE] | – | – | – | – | – | – | – | – | – | Active | Active
